Results published in ChEMBL document CHEMBL5154875, “Discovery of Potent Orally Bioavailable WD Repeat Domain 5 (WDR5) Inhibitors Using a Pharmacophore-Based Optimization” (J Med Chem, 2022).
≈ marks a conversion by molar mass, not a printed value.

Experiments:
MV4-11 = assay: Anti-proliferative activity against human MV4-11 cells assessed as inhibition of cell proliferation incubated for 5 days by Cell Titre Glo luminescent assay; format: functional; conditions: Homo sapiens, MV4-11, 120 h, time 5 day
K562 = assay: Anti-proliferative activity against human K562 cells assessed as inhibition of cell proliferation incubated for 5 days by Cell Titre Glo luminescent assay; format: functional; conditions: Homo sapiens, K562, 120 h, time 5 day
MOLM-13 = assay: Anti-proliferative activity against human MOLM-13 cells assessed as inhibition of cell proliferation incubated for 5 days by Cell Titre Glo luminescent assay; format: functional; conditions: Homo sapiens, MOLM-13, 120 h, time 5 day
[1] = target: WD repeat-containing protein 5 (Homo sapiens, UniProt P61964); assay: Competitive binding affinity to N-terminal 6xHis-SUMO-tagged human WDR5 (22 to 334 residues) expressed in Escherichia coli BL21-Gold (DE3) cells assessed as inhibition constant using 10-mer-Thr-FAM peptide as substrate incubated for 1 hr by Lantha Screen based TR-FRET assay
[2] = Volume of distribution at steady state in CD-1 mouse at 3 mg/kg, iv measured 0.083 to 24 hrs post-treatment by LC-MS/MS analysis; format: ADME, organism-based; conditions: in vivo, time 0.083-24 hrs; for Vd: CD-1, mouse, read-out: Vdss
[3] = AUC (0 to infinity) in CD-1 mouse at 3 mg/kg, iv measured 0.083 to 24 hrs post-treatment by LC-MS/MS analysis; format: ADME, organism-based; set-up: time upper 24 hrs, time lower 0.083 hrs, dose 3 mg/kg, route iv; conditions: in vivo; for AUC(0-inf): CD-1, mouse
[4] = AUC (0 to infinity) in CD-1 mouse at 10 mg/kg, po measured 0.083 to 24 hrs post-treatment by LC-MS/MS analysis; format: ADME, organism-based; set-up: dose 10 mg/kg, time upper 24 hrs, time lower 0.083 hrs, route po; conditions: in vivo; for AUC(0-inf): CD-1, mouse
[5] = Oral bioavailability in CD-1 mouse at 10 mg/kg measured 0.083 to 24 hrs post-treatment by LC-MS/MS analysis; format: ADME, organism-based; conditions: in vivo, time 0.083-24 hrs; for bioavailability: CD-1, mouse
[6] = Half life in CD-1 mouse at 10 mg/kg, po measured 0.083 to 24 hrs post-treatment by LC-MS/MS analysis; format: ADME, organism-based; conditions: in vivo, time 0.083-24 hrs; for half-life: CD-1, mouse; for t1/2: mouse, po, 10 mg/kg
[7] = Clearance in CD-1 mouse at 3 mg/kg, iv measured 0.083 to 24 hrs post-treatment by LC-MS/MS analysis; format: ADME, organism-based; conditions: in vivo, time 0.083-24 hrs
[8] = Kinetic solubility of compound in PBS at pH 7.4 at 100 uM incubated for 1 hr by UV-visible spectroscopy analysis; format: physicochemical; conditions: for solubility kinetic at 1 h, 100 µM: PBS, pH 7.4, read-out: Kinetic_solubility
[9] = Cmax in CD-1 mouse at 10 mg/kg, po measured 0.083 to 24 hrs post-treatment by LC-MS/MS analysis; format: ADME, organism-based; set-up: time lower 0.083 hrs, dose 10 mg/kg, time upper 24 hrs, route po; conditions: in vivo
[10] = Metabolic stability of compound in rat liver microsome assessed as intrinsic clearance at 1 uM measured upto 45 mins by LCMS analysis; format: ADME, microsomes; conditions: microsomes, 0.75 h, 1 µM
[11] = Metabolic stability of compound in rat liver microsome assessed as half life at 1 uM measured upto 45 mins by LCMS analysis; format: ADME, microsomes; conditions: microsomes, 0.75 h, 1 µM

Row | Compound | GI50 (MV4-11) [nM] | GI50 (K562) [nM] | GI50 (MOLM-13) [nM] | Ki [1] [nM] | other results
1 | COc1cc(CN2CCc3c(cc(Cn4ccn(C)c4=N)cc3-c3cc(C)cnc3C)C2=O)cc(OC)c1 | 640 | > 30000 | 2400 | 0.022 | –
2 | CCn1cc(-c2cc(Cn3ccnc3)cc3c2CCN([C@@H](c2cc(OC)ccn2)C2CC2)C3=O)c(C(F)(F)F)n1 | 13 | 3700 | 27 | – | Vd [2]: 1.6 L/kg; AUC(0-inf) [3]: 1950 ng·h/mL; AUC(0-inf) [4]: 3980 ng·h/mL; bioavailability [5]: 61%; half-life [6]: 1.3 h; clearance [7]: 26 mL/min/kg; solubility kinetic at 1 h, 100 µM [8]: 60 µM (≈ 33 µg/mL); Cmax ([9]; CD-1, mouse, read-out: Cmax): 2080 ng/mL
3 | CCn1cc(-c2cc(Cn3ccnc3)cc3c2CCN([C@H](c2cc(OC)ccn2)C2CC2)C3=O)c(C(F)(F)F)n1 | 19 | 1500 | 37 | < 0.02 | t1/2 [6]: 1.2 h
4 | COc1cc(CN2CCc3c(cc(Cn4ccnc4C4CC4)cc3-c3cn(C)nc3C(F)(F)F)C2=O)cc(OC)c1 | 240 | 8500 | 710 | 0.028 | –
5 | COc1cc(CN2CCc3c(cc(Cn4ccn(C)c4=N)cc3-c3ccc(F)cc3OC)C2=O)cc(OC)c1 | 210 | 18000 | 420 | 0.033 | –
6 | Cc1cccnc1CN1CCc2c(cc(Cn3ccnc3C)cc2-c2cn(C)nc2C(F)(F)F)C1=O | 3000 | 22000 | 4700 | 0.59 | –
7 | COc1cc(CN2CCc3c(cc(Cn4ccn(C)c4=N)cc3-c3ccc(F)cc3O)C2=O)cc(OC)c1 | 88 | > 30000 | 220 | 0.035 | –
8 | COc1cc(CN2CCc3c(cc(Cn4ccnc4C(F)F)cc3-c3cn(C)nc3C(F)(F)F)C2=O)cc(OC)c1 | 12000 | > 30000 | 20000 | > 6.7 | –
9 | CCc1ccnc(CN2CCc3c(cc(Cn4ccnc4C)cc3-c3cn(C)nc3C(F)(F)F)C2=O)c1 | 16 | 4100 | 25 | < 0.02 | –
10 | COc1ccnc(CN2CCc3c(cc(Cn4ccnc4C)cc3-c3cn(C)nc3C(F)(F)F)C2=O)c1 | 24 | 9500 | 39 | < 0.02 | CLH [10]: 220 µL/min/mg; t1/2 [11]: 3.2 min
11 | CCn1cc(-c2cc(Cn3ccnc3)cc3c2CCN([C@H](C)c2cc(OC)ccn2)C3=O)c(C(F)(F)F)n1 | 39 | 12000 | 100 | 0.028 | –
12 | CCn1cc(-c2cc(Cn3ccnc3C)cc3c2CCN([C@H](C)c2cc(OC)ccn2)C3=O)c(C(F)(F)F)n1 | 39 | 7800 | 110 | 0.029 | –
13 | COc1cc(CN2CCc3c(cc(Cn4ccn(C)c4=N)cc3-c3cn(C)nc3C)C2=O)cc(OC)c1 | 210 | > 30000 | 570 | 0.023 | –
14 | COc1cc(CN2CCc3c(cc(Cn4ccn(C)c4=N)cc3-c3cccnc3OC)C2=O)cc(OC)c1 | 560 | > 30000 | 1600 | 0.055 | –
15 | COc1cc(CN2CCc3c(cc(Cn4ccn(C)c4=N)cc3-c3ccncc3C)C2=O)cc(OC)c1 | 230 | > 30000 | 640 | 0.029 | –
16 | CCn1cc(-c2cc(Cn3ccnc3C)cc3c2CCN(Cc2cc(OC)ccn2)C3=O)c(C(F)(F)F)n1 | 34 | 13000 | 59 | < 0.02 | –
17 | COc1cc(CN2CCc3c(cc(Cn4cccn4)cc3-c3cn(C)nc3C(F)(F)F)C2=O)cc(OC)c1 | 22000 | > 30000 | 20000 | > 6.7 | –
18 | COc1cc(CN2CCc3c(cc(Cn4ccn(C)c4=N)cc3-c3cc(C)nn3C)C2=O)cc(OC)c1 | 85 | > 30000 | 270 | 0.025 | –
19 | Cc1cc(CN2CCc3c(cc(Cn4ccnc4C)cc3-c3cn(C)nc3C(F)(F)F)C2=O)ccn1 | 270 | 13000 | 550 | 0.064 | –

Row | Compound | GI50 (MV4-11) [nM] | GI50 (K562) [nM] | GI50 (MOLM-13) [nM] | Ki [1] [nM] | other results
20 | COc1cc(CN2CCc3c(cc(Cn4cnnc4)cc3-c3cn(C)nc3C(F)(F)F)C2=O)cc(OC)c1 | 16000 | > 30000 | > 30000 | 6.5 | –
21 | Cc1ccnc(CN2CCc3c(cc(Cn4ccnc4C)cc3-c3cn(C)nc3C(F)(F)F)C2=O)c1 | 23 | 3600 | 33 | 0.02 | –
22 | CCn1cc(-c2cc(Cn3ccn(C)c3=N)cc3c2CCN(Cc2cc(OC)cc(OC)c2)C3=O)c(C(F)(F)F)n1 | 36 | > 30000 | 110 | < 0.02 | –
23 | CCn1cc(-c2cc(Cn3ccnc3C)cc3c2CCN([C@H](c2cc(C)ccn2)C2CC2)C3=O)c(C(F)(F)F)n1 | 17 | 2500 | 43 | < 0.02 | Vdss ([2]; mouse, iv, 3 mg/kg): 1.1 L/kg; AUC ([3]; mouse): 2075 ng·h/mL; AUC ([4]; mouse): 1000 ng·h/mL; F ([5]; mouse, po, 10 mg/kg): 15%; t1/2 [6]: 1.2 h; Kinetic_solubility ([8]; buffer, pH 7.4, 1 h, 100 µM): 66 µM; Cmax ([9]; mouse): 1083 ng/mL
24 | CCc1ccnc(CN2CCc3c(cc(Cn4ccnc4C)cc3-c3cn(CC)nc3C(F)(F)F)C2=O)c1 | 24 | 5600 | 43 | < 0.02 | –
25 | CCc1nccn1Cc1cc2c(c(-c3cn(C)nc3C(F)(F)F)c1)CCN(Cc1cc(OC)cc(OC)c1)C2=O | 94 | 7500 | 240 | – | –
26 | Cc1cccc(CN2CCc3c(cc(Cn4ccnc4C)cc3-c3cn(C)nc3C(F)(F)F)C2=O)n1 | 170 | 13000 | 330 | 0.039 | –
27 | COc1cc(CN2CCc3c(cc(Cn4ccnc4)cc3-c3cn(C)nc3C(F)(F)F)C2=O)cc(OC)c1 | 59 | 9100 | 180 | < 0.02 | –
28 | CCn1cc(-c2cc(Cn3ccnc3C)cc3c2CCN([C@@H](c2cc(OC)ccn2)C2CC2)C3=O)c(C(F)(F)F)n1 | 15 | 2600 | 36 | – | Vd [2]: 1.6 L/kg; AUC(0-inf) [3]: 1240 ng·h/mL; AUC(0-inf) [4]: 508 ng·h/mL; bioavailability [5]: 12%; half-life [6]: 1.4 h; clearance [7]: 41 mL/min/kg; solubility kinetic at 1 h, 100 µM [8]: 65 µM (≈ 36.7 µg/mL); Cmax ([9]; CD-1, mouse, read-out: Cmax): 652 ng/mL
29 | COc1cc(CN2CCc3c(cc(Cn4ccn(C)c4=N)cc3-c3cc(C)ncc3C)C2=O)cc(OC)c1 | 200 | > 30000 | 560 | < 0.02 | –
30 | COc1cc(CN2CCc3c(cc(Cn4ccn(C)c4=N)cc3-c3c(C)nn(C)c3C)C2=O)cc(OC)c1 | 19000 | > 30000 | > 30000 | 0.21 | –
31 | COc1cc(CN2CCc3c(cc(Cn4ccn(C)c4=N)cc3-c3cn(C)nc3C(F)(F)F)C2=O)cc(OC)c1 | 39 | > 30000 | 110 | < 0.02 | –
32 | COc1cc(CN2CCc3c(cc(Cn4cccc4)cc3-c3cn(C)nc3C(F)(F)F)C2=O)cc(OC)c1 | 15000 | > 30000 | 15000 | > 6.7 | –
33 | COc1cc(CN2CCc3c(cc(Cn4ccnc4C(C)C)cc3-c3cn(C)nc3C(F)(F)F)C2=O)cc(OC)c1 | 4700 | 6000 | 7700 | 3.4 | –
34 | COc1cc(CN2CCc3c(cc(Cn4ccnc4C)cc3-c3cn(C)nc3C(F)(F)F)C2=O)cc(OC)c1 | 32 | 3700 | 110 | < 0.02 | –
35 | COc1cc(CN2CCc3c(cc(Cn4ccn(C)c4=N)cc3-c3cccnc3C)C2=O)cc(OC)c1 | 1200 | > 30000 | 3900 | 0.036 | –
36 | COc1cc(CN2CCc3c(cc(Cn4ccn(C)c4=N)cc3-c3conc3C)C2=O)cc(OC)c1 | 850 | > 30000 | 2100 | 0.046 | –
37 | Cc1nccn1Cc1cc2c(c(-c3cn(C)nc3C(F)(F)F)c1)CCN(Cc1ccccn1)C2=O | 1500 | > 30000 | 3100 | 0.23 | –
